Values of other authors in patent US20160324796A1, “COMPOSITIONS AND THEIR USE TO TREAT COMPLICATIONS OF ANEURYSMAL SUBARACHNOID HEMMORRHAGE” (Edge Therapeutics, Inc., priority 2007, published 2016).
Like-named read-outs stand apart in the source and are kept apart here. Ends that are not written are not given here.

Tests used:
[1] = tested on: patients with SAH; conditions: cited from earlier work; for patients with primary end point: placebo 27%; for patients with poor outcome (extended Glasgow Outcome Scale score </=4): placebo 24%
[2] = tested on: patients with SAH; conditions: cited from earlier work
[3] = tested on: K+ and Na+ currents, and L, P/Q and T-type calcium currents; conditions: cited from earlier work
[4] = tested on: R-type calcium current; conditions: cited from earlier work
[5] = target: N-type calcium current (Homo sapiens, UniProt Q00975); conditions: at 300 nM to 500 nM; cited from earlier work
Sequence of N-type calcium current (Q00975 whole entry): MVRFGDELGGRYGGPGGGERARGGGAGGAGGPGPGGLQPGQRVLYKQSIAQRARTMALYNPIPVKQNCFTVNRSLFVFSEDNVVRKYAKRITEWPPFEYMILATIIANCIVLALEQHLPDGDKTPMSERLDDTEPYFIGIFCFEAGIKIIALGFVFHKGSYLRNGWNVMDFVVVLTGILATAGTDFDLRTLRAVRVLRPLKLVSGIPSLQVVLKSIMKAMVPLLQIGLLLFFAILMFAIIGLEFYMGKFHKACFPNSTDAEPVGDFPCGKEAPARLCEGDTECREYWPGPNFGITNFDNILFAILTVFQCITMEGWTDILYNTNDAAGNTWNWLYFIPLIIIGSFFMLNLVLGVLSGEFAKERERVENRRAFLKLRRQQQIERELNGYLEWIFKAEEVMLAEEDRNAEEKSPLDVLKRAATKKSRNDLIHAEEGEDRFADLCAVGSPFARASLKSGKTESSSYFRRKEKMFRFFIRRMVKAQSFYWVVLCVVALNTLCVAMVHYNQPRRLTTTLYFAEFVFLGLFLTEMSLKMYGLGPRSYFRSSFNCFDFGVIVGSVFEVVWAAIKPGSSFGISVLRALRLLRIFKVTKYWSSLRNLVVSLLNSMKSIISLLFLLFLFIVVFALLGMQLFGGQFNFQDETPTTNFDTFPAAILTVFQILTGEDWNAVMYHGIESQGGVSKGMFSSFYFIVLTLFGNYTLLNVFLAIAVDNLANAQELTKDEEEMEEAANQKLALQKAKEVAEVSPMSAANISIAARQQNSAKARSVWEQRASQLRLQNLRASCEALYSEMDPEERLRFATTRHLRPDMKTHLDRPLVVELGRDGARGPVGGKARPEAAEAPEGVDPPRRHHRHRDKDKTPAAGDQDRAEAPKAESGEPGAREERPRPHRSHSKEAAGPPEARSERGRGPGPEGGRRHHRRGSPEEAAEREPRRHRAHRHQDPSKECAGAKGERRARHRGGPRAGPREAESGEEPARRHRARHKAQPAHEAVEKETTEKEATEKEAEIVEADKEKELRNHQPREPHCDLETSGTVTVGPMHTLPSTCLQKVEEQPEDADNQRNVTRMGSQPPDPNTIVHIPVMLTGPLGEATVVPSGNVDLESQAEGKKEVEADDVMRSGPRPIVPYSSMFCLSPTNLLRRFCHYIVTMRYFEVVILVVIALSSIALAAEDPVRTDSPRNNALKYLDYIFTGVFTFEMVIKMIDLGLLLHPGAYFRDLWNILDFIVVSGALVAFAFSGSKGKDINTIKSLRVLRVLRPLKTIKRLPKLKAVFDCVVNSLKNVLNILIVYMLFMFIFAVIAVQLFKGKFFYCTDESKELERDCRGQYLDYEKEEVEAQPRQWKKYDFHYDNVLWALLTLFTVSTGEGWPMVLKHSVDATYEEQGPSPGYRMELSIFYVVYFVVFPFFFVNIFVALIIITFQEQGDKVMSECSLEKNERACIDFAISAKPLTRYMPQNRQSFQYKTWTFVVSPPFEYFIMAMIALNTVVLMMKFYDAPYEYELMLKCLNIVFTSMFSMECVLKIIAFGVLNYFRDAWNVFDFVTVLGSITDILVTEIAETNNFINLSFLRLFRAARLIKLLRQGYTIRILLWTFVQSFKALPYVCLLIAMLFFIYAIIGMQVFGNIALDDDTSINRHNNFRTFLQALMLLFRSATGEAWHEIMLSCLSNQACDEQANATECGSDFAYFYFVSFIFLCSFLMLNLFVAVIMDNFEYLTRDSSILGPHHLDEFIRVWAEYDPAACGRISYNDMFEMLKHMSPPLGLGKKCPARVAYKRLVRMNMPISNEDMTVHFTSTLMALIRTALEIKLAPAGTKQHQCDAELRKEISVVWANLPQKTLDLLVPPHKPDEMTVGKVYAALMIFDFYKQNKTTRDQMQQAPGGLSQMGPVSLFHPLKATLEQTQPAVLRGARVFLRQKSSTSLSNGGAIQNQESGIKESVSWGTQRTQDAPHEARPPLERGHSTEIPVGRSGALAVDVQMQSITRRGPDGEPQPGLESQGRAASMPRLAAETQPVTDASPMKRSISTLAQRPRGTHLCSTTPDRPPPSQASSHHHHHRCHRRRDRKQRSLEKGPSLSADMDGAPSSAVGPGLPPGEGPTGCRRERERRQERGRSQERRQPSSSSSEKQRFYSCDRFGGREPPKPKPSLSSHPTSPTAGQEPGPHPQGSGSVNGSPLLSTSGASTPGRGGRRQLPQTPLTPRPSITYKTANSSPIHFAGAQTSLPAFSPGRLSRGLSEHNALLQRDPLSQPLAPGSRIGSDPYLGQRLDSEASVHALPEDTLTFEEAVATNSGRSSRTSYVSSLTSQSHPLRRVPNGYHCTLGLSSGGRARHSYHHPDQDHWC

Molecule	odds ratio, primary end point ([1]; 5 mg/h versus placebo, 95% CI 0.479-1.289, P=0.340)	odds ratio, poor outcome ([1]; 5 mg/h versus placebo, 95% CI 0.546-1.544, P=0.748)	patients with primary end point ([1]; 5 mg/h, 47/194) [%]	patients with poor outcome (extended Glasgow Outcome Scale score </=4) ([1]; 5 mg/h) [%]	odds ratio, primary end point ([1]; 15 mg/h versus placebo, 95% CI 0.275-0.818, P=0.007)	odds ratio, poor outcome ([1]; 15 mg/h versus placebo, 95% CI 0.802-2.227, P=0.266)	patients with primary end point ([1]; 15 mg/h, 28/188) [%]	patients with poor outcome (extended Glasgow Outcome Scale score </=4) ([1]; 15 mg/h) [%]	patients meeting primary composite endpoint (week 6) ([2]; 5 mg/h up to 14 days, 161 of 764 patients, placebo 25%) [%]	relative risk reduction, primary composite endpoint ([2]; 5 mg/h versus placebo, 95% CI -4 to 33, p=0.10) [%]	relative risk reduction, poor functional outcome ([2]; 5 mg/h versus placebo, −45 to 4, p=0.10) [%]	patients with poor functional outcome (GOSE score </=4) ([2]; 5 mg/h, placebo 25%) [%]	Mortality (week 12) ([2]; 5 mg/h, same in placebo) [%]	effect on K+ and Na+ currents, and L, P/Q and T-type calcium currents [3]	block of R-type calcium current ([4]; neurohypophysial nerve endings, 40 nM)	effect on R-type current ([4]; preparations of the neuronal cell body, retinal ganglion cells and hippocampal pyramidal cells)	block of N-type calcium current [5]
COc1ccccc1Oc1c(NS(=O)(=O)c2ccc(C)cn2)nc(-c2ccnc(-c3nnn[nH]3)c2)nc1OCCO [clazosentan]	0.786	0.918	24	25	0.474	1.337	15	28	21	17	−18	29	6				
SNX-482: toxin from the tarantula Hysterocrates gigas, a 41 amino acid residue peptide with 3 disulfide linkages; putative R-type selective blocker (GVDKAGCRYMFGGCSVNDDCCPRLGCHSLFSYCAWDLTFSD; disulfide (positions not given here); UniProt P56854 1-41, looked up)														no effect	blocks	no significant effect	30-50%
